Results published in ChEMBL document CHEMBL1201862, “PubChem BioAssay data set” (2004).
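These data come from cells grown in 96-well plates and exposed to compound for 48 hours at five concentrations. GI50 marks 50% less growth.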 Activity calls are given as the source filed them. Cut-off read from the data, not from the text of the source: active = GI50 up to about 1.1 µM and inactive = higher.

Key:
Assay in all cases: NCI-60 cell line screen, 48 h
HCC 2998 = test system: HCC 2998
OVCAR-5 = test system: OVCAR-5
NCI-H522 = test system: NCI-H522
NCI/ADR-RES = test system: NCI/ADR-RES
A498 = test system: A498
UACC-62 = test system: UACC-62
BT-549 = test system: BT-549
PC-3 = test system: PC-3
MDA-MB-435 = test system: MDA-MB-435
NCI-H226 = test system: NCI-H226
NCI-H23 = test system: NCI-H23
COLO 205 = test system: COLO 205
SN12C = test system: SN12C
OVCAR-3 = test system: OVCAR-3
SK-OV-3 = test system: SK-OV-3
SF-295 = test system: SF-295
HOP-92 = test system: HOP-92
CCRF-CEM = test system: CCRF-CEM
SK-MEL-28 = test system: SK-MEL-28
ACHN = test system: ACHN
KM12 = test system: KM12
EKVX = test system: EKVX
HCT-116 = test system: HCT-116
SK-MEL-2 = test system: SK-MEL-2
786-0 = test system: 786-0
OVCAR-4 = test system: OVCAR-4
SK-MEL-5 = test system: SK-MEL-5
A549 = test system: A549
OVCAR-8 = test system: OVCAR-8
TK-10 = test system: TK-10
HOP-62 = test system: HOP-62
CAKI-1 = test system: CAKI-1
DU-145 = test system: DU-145
MOLT-4 = test system: MOLT-4
SNB-19 = test system: SNB-19
K562 = test system: K562
HL-60 = test system: HL-60
Malme-3M = test system: Malme-3M
MCF7 = test system: MCF7
NCI-H460 = test system: NCI-H460
MDA-MB-231 = test system: MDA-MB-231
T47D = test system: T47D
HT-29 = test system: HT-29
UACC-257 = test system: UACC-257
HCT-15 = test system: HCT-15
SF-539 = test system: SF-539
LOX IMVI = test system: LOX IMVI
U-251 = test system: U-251
IGROV-1 = test system: IGROV-1
MDA-N = test system: MDA-N
RPMI-8226 = test system: RPMI-8226
SR = test system: SR
SW-620 = test system: SW-620
UO-31 = test system: UO-31
RXF 393 = test system: RXF 393
M14 = test system: M14
Hs-578T = test system: Hs-578T
SNB-75 = test system: SNB-75
SF-268 = test system: SF-268

Measured: GI50

COc1nc(C(Cl)(Cl)Cl)c(Cl)c(O)c1Cl
inactive: HCC 2998 > 100 µM | OVCAR-5 > 100 µM | NCI-H522 49.3 µM | NCI/ADR-RES > 100 µM | A498 > 100 µM | UACC-62 > 100 µM | BT-549 > 100 µM | PC-3 > 100 µM | MDA-MB-435 > 100 µM | NCI-H226 > 100 µM | NCI-H23 > 100 µM | COLO 205 > 100 µM | SN12C > 100 µM | OVCAR-3 > 100 µM | SK-OV-3 > 100 µM | SF-295 > 100 µM | HOP-92 > 100 µM | CCRF-CEM > 100 µM | SK-MEL-28 > 100 µM | ACHN > 100 µM | KM12 > 100 µM | EKVX > 100 µM | HCT-116 > 100 µM | SK-MEL-2 > 100 µM | 786-0 > 100 µM | OVCAR-4 > 100 µM | SK-MEL-5 > 100 µM | A549 > 100 µM | OVCAR-8 > 100 µM | TK-10 > 100 µM | HOP-62 > 100 µM | CAKI-1 30.5 µM | DU-145 > 100 µM | MOLT-4 > 100 µM | SNB-19 > 100 µM | K562 > 100 µM | HL-60 > 100 µM | Malme-3M > 100 µM | MCF7 > 100 µM | NCI-H460 > 100 µM | MDA-MB-231 > 100 µM | T47D > 100 µM | HT-29 > 100 µM | UACC-257 > 100 µM | SF-539 > 100 µM | LOX IMVI > 100 µM | U-251 > 100 µM | IGROV-1 > 100 µM | MDA-N > 100 µM | RPMI-8226 > 100 µM | SR > 100 µM | SW-620 > 100 µM | UO-31 > 100 µM
> 100 µM: HCT-15

COc1cc([C@@H]2c3cc4c(cc3[C@@H](NCCNCCO)[C@H]3COC(=O)[C@H]23)OCO4)cc(OC)c1O
active: UACC-62 0.644 µM | CCRF-CEM 0.0432 µM | 786-0 1.09 µM | A549 0.785 µM | MOLT-4 0.016 µM | SNB-19 0.857 µM | NCI-H460 0.0525 µM | T47D 0.442 µM | SNB-75 1.1 µM | U-251 0.501 µM | IGROV-1 1.05 µM
inactive: NCI/ADR-RES > 100 µM | BT-549 1.92 µM | PC-3 2.67 µM | MDA-MB-435 6.22 µM | NCI-H226 1.12 µM | RXF 393 1.53 µM | NCI-H23 1.24 µM | COLO 205 2.38 µM | SK-OV-3 1.78 µM | SK-MEL-28 2.14 µM | M14 3.79 µM | KM12 2.55 µM | HCT-116 2.4 µM | Hs-578T 1.89 µM | SK-MEL-2 2.15 µM | OVCAR-4 18.7 µM | SK-MEL-5 1.15 µM | OVCAR-8 2.09 µM | TK-10 6.59 µM | HOP-62 1.5 µM | CAKI-1 3.78 µM | K562 1.71 µM | HT-29 2.86 µM | UACC-257 7.85 µM | MDA-N 4.35 µM | SW-620 2.44 µM | UO-31 11.6 µM
29.5 µM: HCT-15

C=C1C(=O)CC2C(=O)C(C)(O)CC/C=C(\C)C(=O)CC12 (configuration not stated)
inactive: HCC 2998 > 100 µM | OVCAR-5 20.7 µM | NCI-H522 3.19 µM | NCI/ADR-RES 38.5 µM | A498 > 86.9 µM | UACC-62 30.3 µM | BT-549 15.8 µM | PC-3 24.7 µM | MDA-MB-435 24.6 µM | NCI-H226 6.07 µM | RXF 393 14.4 µM | NCI-H23 16.9 µM | COLO 205 9.84 µM | SN12C 15.2 µM | OVCAR-3 17 µM | SK-OV-3 > 100 µM | SF-295 > 100 µM | HOP-92 23.6 µM | CCRF-CEM 4.23 µM | SK-MEL-28 24.3 µM | M14 16.4 µM | ACHN 10.2 µM | KM12 32.6 µM | EKVX 21.5 µM | HCT-116 10.3 µM | Hs-578T 2.96 µM | SK-MEL-2 28.8 µM | 786-0 16.1 µM | OVCAR-4 37.6 µM | SK-MEL-5 14.7 µM | A549 60.1 µM | OVCAR-8 20.1 µM | TK-10 12.7 µM | HOP-62 > 78.9 µM | CAKI-1 3.17 µM | DU-145 18.2 µM | MOLT-4 4.14 µM | SNB-19 > 91.4 µM | K562 6.37 µM | HL-60 1.53 µM | Malme-3M 11.7 µM | MCF7 11.2 µM | NCI-H460 > 100 µM | MDA-MB-231 26.7 µM | HT-29 17 µM | UACC-257 20 µM | SNB-75 > 41.9 µM | SF-539 18.2 µM | LOX IMVI 16.3 µM | U-251 > 49.5 µM | IGROV-1 15.3 µM | MDA-N 17.3 µM | RPMI-8226 15 µM | SR 20.2 µM | SW-620 6.37 µM | UO-31 6.7 µM | SF-268 19.5 µM
13.6 µM: HCT-15

Cc1ccc(/N=C2/S/C(=C3/CCC=C3N3CCOCC3)N(c3ccc(Cl)cc3)/C2=N/c2ccc(C)cc2)cc1
inactive: HCC 2998 > 100 µM | OVCAR-5 > 100 µM | A498 > 100 µM | UACC-62 > 100 µM | BT-549 > 100 µM | PC-3 > 100 µM | NCI-H226 > 100 µM | RXF 393 > 100 µM | NCI-H23 > 100 µM | COLO 205 > 100 µM | SN12C > 100 µM | HOP-92 > 100 µM | SK-MEL-28 > 100 µM | M14 > 100 µM | ACHN > 100 µM | KM12 > 100 µM | EKVX > 100 µM | HCT-116 > 100 µM | Hs-578T > 100 µM | SK-MEL-2 > 100 µM | 786-0 > 100 µM | SK-MEL-5 > 100 µM | A549 > 100 µM | OVCAR-8 > 100 µM | TK-10 > 100 µM | HOP-62 > 100 µM | MOLT-4 > 100 µM | SNB-19 > 100 µM | K562 > 100 µM | HL-60 > 100 µM | Malme-3M > 100 µM | MCF7 > 100 µM | NCI-H460 > 100 µM | MDA-MB-231 > 100 µM | T47D > 100 µM | HT-29 > 100 µM | UACC-257 > 100 µM | SNB-75 > 100 µM | U-251 > 100 µM | IGROV-1 > 100 µM | MDA-N > 100 µM | RPMI-8226 > 100 µM | SR > 100 µM | SW-620 > 100 µM | UO-31 > 100 µM
> 100 µM: HCT-15
